The source of these data is PubChem BioAssay (NCI).

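Method: 48-hour compound exposure of cells in 96-well plates, five concentrations, linear interpolation of endpoints. GI50 is the concentration that inhibits growth by half. At the TGI there is no net growth.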

Test systems include SNB-75 CNS; SF-295 CNS; A498 renal; NCI-H226 lung; HT29 colon; SF-539 CNS; HS 578T breast; SF-268 CNS.
Holding throughout (assay): NCI tumour cell line growth inhibition, 48 h

As for `C[C@]12C3CC[C@@]4(CO)C[C@]3(CCC1[C@](C)(C(=O)O)CC[C@@H]2O)CC4=O` (stereo partly specified), the GI50 in the assay with SNB-75 CNS, in the assay with SF-295 CNS, in the assay with A498 renal, with NCI-H226 lung, in the assay on HT29 colon and in the assay on SF-539 CNS was over 100 µM each time. In addition, the GI50 in the assay with HS 578T breast and with SF-268 CNS was over 100 µM each time. Besides, the TGI in the assay on SNB-75 CNS, in the assay with SF-295 CNS, in the assay with A498 renal, in the assay with NCI-H226 lung, in the assay on HT29 colon and in the assay on SF-539 CNS was over 100 µM each time. Besides, the TGI in the assay with HS 578T breast and in the assay with SF-268 CNS was over 100 µM throughout.

Consider `COc1cc(-c2cc(/C=C3\C(=O)Nc4ccccc43)[nH]n2)cc(OC)c1OC`, for which the GI50 was 1.18 µM in the assay with SNB-75 CNS; 2.84 µM in the assay on SF-295 CNS; 2.5 µM with A498 renal; 2.43 µM in the assay on NCI-H226 lung; 3.15 µM with HT29 colon; 3.49 µM in the assay on SF-539 CNS. The values for the GI50 in the assay with HS 578T breast and with SF-268 CNS were 5.43 µM and 3.76 µM, respectively. In addition, the TGI in the assay with SNB-75 CNS came out at 10 µM; with SF-295 CNS it was 11.6 µM; in the assay on A498 renal it was 7.71 µM; in the assay with NCI-H226 lung, 15.5 µM; with HT29 colon, 17.7 µM; in the assay with SF-539 CNS, 16.3 µM. For the same compound, the TGI in the assay with HS 578T breast was determined as 62.8 µM; with SF-268 CNS, 17.2 µM.

Regarding `CO[C@@]12C[C@H]3[C@@H]([C@@H](O)[C@@H](OC(=O)/C=C/c4ccccc4)[C@@]4(O)C(C)(C)CCC[C@]34C)[C@@H](C)C1=CC(=O)O2`, the GI50 with SNB-75 CNS is 0.382 µM; in the assay on SF-295 CNS, 3.84 µM; in the assay with A498 renal, 11.3 µM; with NCI-H226 lung, 4.76 µM; with HT29 colon it was 4.6 µM; with SF-539 CNS, 12.4 µM. The values for the GI50 in the assay with HS 578T breast and with SF-268 CNS were 7.8 µM and 6.78 µM, respectively. For the same compound, the TGI with SNB-75 CNS amounted to 2.46 µM; in the assay with SF-295 CNS, 44.1 µM; in the assay with A498 renal, 26.3 µM; with NCI-H226 lung, 18.8 µM; with HT29 colon, 26.5 µM; in the assay with SF-539 CNS it was 27.4 µM. Further, the figures for the TGI in the assay on HS 578T breast and in the assay on SF-268 CNS were 29.3 µM and 72.8 µM, respectively.

Consider `COc1ccc(CC(NC(=O)[C@H](C)NC(=O)CN2CCOCC2)C(=O)N[C@@H](Cc2ccccc2)C(=O)[C@@]2(C)CO2)cc1` (stereo partly specified), for which the GI50 was 0.175 µM with SNB-75 CNS; 0.185 µM with SF-295 CNS; 0.224 µM in the assay on A498 renal; 0.246 µM with NCI-H226 lung; 0.339 µM in the assay with HT29 colon; 0.221 µM in the assay with SF-539 CNS. The results for the GI50 in the assay with HS 578T breast and with SF-268 CNS were 0.286 µM and 0.245 µM, respectively. Further, the TGI is 0.427 µM with SNB-75 CNS; 0.587 µM in the assay with SF-295 CNS; 0.893 µM with A498 renal; 0.725 µM in the assay with NCI-H226 lung; over 33.9 µM with HT29 colon; 0.591 µM in the assay with SF-539 CNS. Besides, the TGI stood at 2.12 µM in the assay on HS 578T breast and 0.708 µM with SF-268 CNS.

As for `C1=C(c2ccccc2)SC=C(c2ccccc2)S1`, the TGI was 64 µM in the assay on SNB-75 CNS; over 100 µM in the assay with SF-295 CNS; over 100 µM with A498 renal; 81.8 µM in the assay on NCI-H226 lung; 75.1 µM in the assay with HT29 colon; over 100 µM in the assay on SF-539 CNS. The TGI in the assay with HS 578T breast and in the assay on SF-268 CNS was over 100 µM in each case.

Take `COc1ccc(C(=O)COc2cccc(/C=C3\CSc4ccc(Cl)cc4C3=O)c2)cc1`: the GI50 with SNB-75 CNS was 16.5 µM; with SF-295 CNS, 11.3 µM; in the assay on A498 renal it was 36.5 µM; in the assay on NCI-H226 lung it was 14.4 µM; in the assay with HT29 colon, 3.32 µM; with SF-539 CNS, 16.2 µM. The results for the GI50 with HS 578T breast and with SF-268 CNS were 3.55 µM and 14.9 µM, respectively. For the same compound, the TGI in the assay on SNB-75 CNS was 37.2 µM; in the assay with SF-295 CNS, 28.7 µM; in the assay with A498 renal, over 100 µM; in the assay on NCI-H226 lung, 62.8 µM; in the assay with HT29 colon, 11.4 µM; with SF-539 CNS it was 30.7 µM. Besides, the TGI in the assay with HS 578T breast is 31.7 µM; in the assay on SF-268 CNS it was 30.3 µM.

As for `C=C1CC2(CCCC3(CC(=C)C(=O)O3)C2(C)C)OC1=O` (stereo unspecified), the TGI came to 34.4 µM in the assay with SNB-75 CNS; 33.8 µM with SF-295 CNS; 41.9 µM in the assay with A498 renal; 6.57 µM with NCI-H226 lung; 15 µM in the assay with HT29 colon; 11.4 µM in the assay with SF-539 CNS. For the same compound, the TGI worked out at 58 µM in the assay on HS 578T breast and 55.5 µM in the assay with SF-268 CNS.

Consider `C/C1=C/C(=O)O[C@@H]2C[C@@H](CC[C@H](C)/C=C\C=C\CC1)O[C@@](OCCc1ccccc1)([C@@H]1CSC(=O)N1)C2`, for which the GI50 is 0.022 µM in the assay with SNB-75 CNS; 0.0383 µM with SF-295 CNS; 0.0313 µM in the assay on A498 renal; 0.0985 µM in the assay on NCI-H226 lung; 0.0793 µM in the assay on HT29 colon; 0.0543 µM in the assay on SF-539 CNS. The GI50 is 0.028 µM with HS 578T breast and 0.0784 µM in the assay with SF-268 CNS. In addition, the TGI in the assay on SNB-75 CNS is 0.0597 µM; in the assay with SF-295 CNS, over 4.55 µM; in the assay with A498 renal it was 0.133 µM; with NCI-H226 lung, over 17.5 µM; in the assay on HT29 colon it was over 15 µM; in the assay with SF-539 CNS, over 17.5 µM. Besides, the TGI was 0.0973 µM with HS 578T breast and 0.377 µM in the assay with SF-268 CNS.

For the compound `CC(C)(C)[Si](C)(C)OCC1C=CC(n2cnc3c(N)ncnc32)O1` (stereo unspecified), the TGI in the assay on SNB-75 CNS is over 81 µM; in the assay with SF-295 CNS it was over 100 µM; with A498 renal, over 100 µM; in the assay on NCI-H226 lung, over 69.6 µM; with HT29 colon it was over 100 µM; in the assay with SF-539 CNS, over 81.5 µM. For the same compound, the TGI in the assay on HS 578T breast and in the assay with SF-268 CNS was over 100 µM in each case.

Turning to `O=C(Nc1cccc(O)c1)c1cccc(NC2=C(Cl)C(=O)N(Cc3ccccc3)C2=O)c1`, the GI50 in the assay with SNB-75 CNS was 18.4 µM; in the assay on SF-295 CNS, 6.39 µM; in the assay with A498 renal it was 13.2 µM; with NCI-H226 lung, 18.7 µM; in the assay with HT29 colon it was 22.2 µM; in the assay with SF-539 CNS, 3.57 µM. The GI50 with HS 578T breast is 12.7 µM; in the assay with SF-268 CNS, 21.8 µM. Also, the TGI with SNB-75 CNS amounted to 36.3 µM; with SF-295 CNS, 21.3 µM; in the assay on A498 renal, 28.9 µM; in the assay with NCI-H226 lung, 44.4 µM; in the assay with HT29 colon, 49.7 µM; with SF-539 CNS, 15.6 µM. In addition, the TGI worked out at 43.5 µM in the assay with HS 578T breast and 54.2 µM in the assay on SF-268 CNS.
